Source: patent US20100239670A1, “Topical Composition Method for Treating Urinary Stress Incontinence” (Plethora Solutions Ltd., priority 2000, published 2010)

Key:
[1] = tested on: female patients with documented history of stress incontinence; experiment: Urethral pressure after topical gel, double-blind randomised 2-way cross-over study; format: in vivo; settings: single topical dose, gel 0.5 ml, 20% w/w, applied to peri-urethral area; up to 5 hours post dosing; in contrast to placebo; two typical patients (FIGS. 1 and 2)
Protocol: (§1) The invention has been evaluated in a double-blind, randomised, 2-way cross-over study in female patients with documented history of stress incontinence. Each patient was exposed to both placebo and active drug over the course of the study.
(§2) Each patient received either a single dose of topical phenylephrine gel (20% w/w in a volume of 0.5 ml) or placebo according to the randomisation schedule. The gel was applied to the peri-urethral area; in, onto or around the area of the vagina and/or vaginal mucosa, in close proximity to the urethra. For up to 5 hours post dosing, urethral pressure was measured using the standard Lectromed/Galetec MPR/2 ambulatory measurement system. Supine and standing blood pressure and pulse rate was likewise measured using standard methodology via a Dinamap semi-automatic sphygmomanometer.

[2] = tested on: female patients with documented history of stress incontinence; experiment: Supine and standing blood pressure and pulse rate in the same cross-over study; format: in vivo; settings: single topical dose, gel 0.5 ml, 20% w/w; up to 5 hours post dosing
Protocol: as §1, §2

[3] = literature, cited from earlier work

CNC[C@H](O)c1cccc(O)c1 [phenylephrine]
intra-urethral pressure [1]: marked and sustained increases
diastolic or systolic blood pressure [2]: no clinically significant changes
pulse rate [2]: no clinically significant changes
blood pressure ([3]; not topical): substantial elevations
duration of action [3]: short
oral bioavailability ([3]; oral): low
